{
  "source": "ChEMBL document CHEMBL4024706",
  "about": "(Eur J Med Chem, 2017)",
  "key": {"[1]": {"system": "Mast/stem cell growth factor receptor Kit (Homo sapiens), P10721 [UNDEFINED MUTATION]", "assay": "Inhibition of human partial length KIT V559D/V654 double mutant (Y545 to D952 residues) expressed in bacterial expression system assessed as residual activity at 1 uM by Kinomescan method relative to control"}, "[2]": {"target": "Megakaryocyte-associated tyrosine-protein kinase (Homo sapiens) (UniProt P42679)", "assay": "Inhibition of wild-type human full length CTK (M43 to P508 residues) expressed in mammalian expression system assessed as residual activity at 1 uM by Kinomescan method relative to control"}, "[3]": {"target": "Mitogen-activated protein kinase 12 (Homo sapiens) (UniProt P53778)", "sequence (P53778 whole entry, the tested form may be a part)": "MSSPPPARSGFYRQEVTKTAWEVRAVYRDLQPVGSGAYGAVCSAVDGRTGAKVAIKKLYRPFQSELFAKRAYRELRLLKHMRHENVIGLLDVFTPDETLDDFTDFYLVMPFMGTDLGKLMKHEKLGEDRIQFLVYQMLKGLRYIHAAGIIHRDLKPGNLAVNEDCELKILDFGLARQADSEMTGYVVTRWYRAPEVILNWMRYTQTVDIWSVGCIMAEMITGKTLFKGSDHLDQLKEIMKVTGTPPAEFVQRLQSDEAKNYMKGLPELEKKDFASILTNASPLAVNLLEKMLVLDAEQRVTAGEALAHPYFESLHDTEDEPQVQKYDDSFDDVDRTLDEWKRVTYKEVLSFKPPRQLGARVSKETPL", "assay": "Inhibition of wild-type human full length p38-gamma (M1 to L367 residues) expressed in mammalian expression system assessed as residual activity at 1 uM by Kinomescan method relative to control"}, "[4]": {"target": "Dual specificity mitogen-activated protein kinase kinase 5 (Homo sapiens) (UniProt Q13163)", "assay": "Inhibition of wild-type human partial length MEK5 (L98 to P448 residues) expressed in mammalian expression system assessed as residual activity at 1 uM by Kinomescan method relative to control"}, "[5]": {"target": "Atypical kinase COQ8A, mitochondrial (Homo sapiens) (UniProt Q8NI60)", "assay": "Inhibition of wild-type human […] ADCK3 (M280 to Q647 residues) expressed in bacterial expression system assessed as residual activity at 1 uM by Kinomescan method relative to control"}, "[6]": {"target": "Serine/threonine-protein kinase D3 (Homo sapiens) (UniProt O94806)", "assay": "Inhibition of wild-type human partial length PRKD3 (S543 to E863 residues) expressed in bacterial expression system assessed as residual activity at 1 uM by Kinomescan method relative to control"}, "[7]": {"target": "Tyrosine-protein kinase Mer (Homo sapiens) (UniProt Q12866)", "assay": "Inhibition of wild-type human partial length MERTK (R557 to L884 residues) expressed in bacterial expression system assessed as residual activity at 1 uM by Kinomescan method relative to control"}, "[8]": {"target": "Tyrosine-protein kinase FRK (Homo sapiens) (UniProt P42685)", "assay": "Inhibition of wild-type human partial length FRK (A215 to F503 residues) expressed in bacterial expression system assessed as residual activity at 1 uM by Kinomescan method relative to control"}, "[9]": {"system": "Receptor-type tyrosine-protein kinase FLT3 (Homo sapiens), P36888 [D835Y]", "assay": "Inhibition of human partial length FLT3 D835Y mutant (Q580 to Y969 residues) expressed in bacterial expression system assessed as residual activity at 1 uM by Kinomescan method relative to control"}, "[10]": {"target": "Calcium/calmodulin-dependent protein kinase type IV (Homo sapiens) (UniProt Q16566)", "assay": "Inhibition of wild-type human partial length CAMK4 (A22 to A322 residues) expressed in bacterial expression system assessed as residual activity at 1 uM by Kinomescan method relative to control"}, "[11]": {"target": "Calcium/calmodulin-dependent protein kinase kinase 1 (Homo sapiens) (UniProt Q8N5S9)", "assay": "Inhibition of wild-type human partial length CAMKK1 (R65 to E414 residues) expressed in bacterial expression system assessed as residual activity at 1 uM by Kinomescan method relative to control"}, "U2932": {"system": "U2932", "assay": "Induction of apoptosis in human U2932 cells assessed as induction of PARP cleavage after 48 hrs by immunoblot", "assay_type": "functional, cell-based"}, "[12]": {"target": "Phosphatidylinositol 4,5-bisphosphate 3-kinase catalytic subunit beta isoform (Homo sapiens) (UniProt P42338)", "sequence (P42338 whole entry, looked up, the tested form may be a part, canonical isoform)": "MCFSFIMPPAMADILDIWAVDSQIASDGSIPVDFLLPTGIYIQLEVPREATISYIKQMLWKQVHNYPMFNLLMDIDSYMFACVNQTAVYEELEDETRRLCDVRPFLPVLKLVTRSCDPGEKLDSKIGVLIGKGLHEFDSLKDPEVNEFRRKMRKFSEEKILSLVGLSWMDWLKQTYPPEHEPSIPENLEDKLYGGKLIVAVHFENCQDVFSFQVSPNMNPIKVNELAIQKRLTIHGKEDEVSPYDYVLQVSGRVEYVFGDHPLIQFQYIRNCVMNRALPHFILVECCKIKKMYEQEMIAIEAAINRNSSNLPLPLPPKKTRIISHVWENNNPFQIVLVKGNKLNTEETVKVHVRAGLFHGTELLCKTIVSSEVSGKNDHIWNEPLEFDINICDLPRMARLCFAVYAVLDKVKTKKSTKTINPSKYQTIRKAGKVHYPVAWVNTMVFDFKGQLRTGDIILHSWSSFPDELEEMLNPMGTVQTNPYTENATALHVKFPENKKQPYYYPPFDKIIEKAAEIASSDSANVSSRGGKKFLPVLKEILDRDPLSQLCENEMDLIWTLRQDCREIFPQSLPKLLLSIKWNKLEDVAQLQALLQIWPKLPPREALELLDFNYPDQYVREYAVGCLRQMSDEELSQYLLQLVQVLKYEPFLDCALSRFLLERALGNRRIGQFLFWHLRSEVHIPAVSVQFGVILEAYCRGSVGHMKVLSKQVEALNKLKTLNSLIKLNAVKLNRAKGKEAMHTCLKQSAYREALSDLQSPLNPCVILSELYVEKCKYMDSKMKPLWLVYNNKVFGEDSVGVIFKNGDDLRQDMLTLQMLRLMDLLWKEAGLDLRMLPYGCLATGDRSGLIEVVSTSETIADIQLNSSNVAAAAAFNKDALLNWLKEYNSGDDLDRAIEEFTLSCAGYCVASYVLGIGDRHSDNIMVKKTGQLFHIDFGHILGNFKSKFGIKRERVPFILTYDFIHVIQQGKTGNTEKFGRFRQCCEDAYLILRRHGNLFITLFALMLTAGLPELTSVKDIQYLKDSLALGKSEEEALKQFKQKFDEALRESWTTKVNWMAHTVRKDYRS", "assay": "Inhibition of wild-type human partial length PIK3CB (P118 to S1070 residues) expressed in mammalian expression system assessed as residual activity at 1 uM by Kinomescan method relative to control"}, "[13]": {"target": "RAC-gamma serine/threonine-protein kinase (Homo sapiens) (UniProt Q9Y243)", "sequence (Q9Y243 whole entry)": "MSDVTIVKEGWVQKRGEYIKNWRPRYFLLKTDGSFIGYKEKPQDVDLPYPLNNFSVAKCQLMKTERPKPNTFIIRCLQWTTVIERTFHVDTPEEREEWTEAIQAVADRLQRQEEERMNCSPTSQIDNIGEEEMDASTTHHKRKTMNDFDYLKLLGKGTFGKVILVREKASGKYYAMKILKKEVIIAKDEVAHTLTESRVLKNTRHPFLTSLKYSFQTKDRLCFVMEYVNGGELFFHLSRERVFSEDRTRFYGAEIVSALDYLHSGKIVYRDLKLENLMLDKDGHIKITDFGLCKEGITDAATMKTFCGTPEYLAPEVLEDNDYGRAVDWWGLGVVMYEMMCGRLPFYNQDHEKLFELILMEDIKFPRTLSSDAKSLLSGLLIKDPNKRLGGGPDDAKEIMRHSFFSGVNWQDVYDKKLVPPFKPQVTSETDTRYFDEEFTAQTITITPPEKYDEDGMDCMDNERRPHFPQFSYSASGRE", "assay": "Inhibition of wild-type human partial length AKT3 expressed in bacterial expression system assessed as residual activity at 1 uM by Kinomescan method relative to control"}, "[14]": {"target": "MAP/microtubule affinity-regulating kinase 3 (Homo sapiens) (UniProt P27448)", "sequence (P27448 whole entry, looked up, the tested form may be a part)": "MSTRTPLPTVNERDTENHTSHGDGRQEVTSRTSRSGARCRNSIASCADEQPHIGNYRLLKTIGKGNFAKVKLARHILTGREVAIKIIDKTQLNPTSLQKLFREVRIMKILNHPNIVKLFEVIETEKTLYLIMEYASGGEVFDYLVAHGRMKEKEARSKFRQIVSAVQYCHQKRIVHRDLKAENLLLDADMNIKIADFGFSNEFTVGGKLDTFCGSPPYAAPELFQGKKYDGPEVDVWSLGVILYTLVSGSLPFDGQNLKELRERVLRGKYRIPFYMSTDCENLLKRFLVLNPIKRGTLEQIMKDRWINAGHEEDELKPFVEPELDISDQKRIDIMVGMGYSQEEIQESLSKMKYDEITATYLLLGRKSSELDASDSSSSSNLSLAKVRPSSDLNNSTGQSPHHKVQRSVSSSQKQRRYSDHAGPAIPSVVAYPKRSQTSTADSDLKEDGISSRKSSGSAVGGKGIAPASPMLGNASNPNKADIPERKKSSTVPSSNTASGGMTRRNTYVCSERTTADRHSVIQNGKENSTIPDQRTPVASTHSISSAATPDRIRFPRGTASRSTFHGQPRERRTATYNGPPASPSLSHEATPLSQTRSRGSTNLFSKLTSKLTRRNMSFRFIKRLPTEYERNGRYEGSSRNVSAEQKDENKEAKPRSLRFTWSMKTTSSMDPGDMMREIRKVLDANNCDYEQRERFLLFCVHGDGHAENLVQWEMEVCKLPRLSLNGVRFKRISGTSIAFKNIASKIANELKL", "assay": "Inhibition of wild-type human full length MARK3 (M1 to L729 residues) expressed in bacterial expression system assessed as residual activity at 1 uM by Kinomescan method relative to control"}, "[15]": {"target": "Tyrosine-protein kinase ABL1 (Homo sapiens) (UniProt P00519)", "assay": "Inhibition of wild-type human non-phosphorylated ABL1 (S229 to K512 residues) expressed in mammalian expression system assessed as residual activity at 1 uM by Kinomescan method relative to control"}, "[16]": {"target": "Macrophage-stimulating protein receptor (Homo sapiens) (UniProt Q04912)", "sequence (Q04912 25-304 limits assumed)": "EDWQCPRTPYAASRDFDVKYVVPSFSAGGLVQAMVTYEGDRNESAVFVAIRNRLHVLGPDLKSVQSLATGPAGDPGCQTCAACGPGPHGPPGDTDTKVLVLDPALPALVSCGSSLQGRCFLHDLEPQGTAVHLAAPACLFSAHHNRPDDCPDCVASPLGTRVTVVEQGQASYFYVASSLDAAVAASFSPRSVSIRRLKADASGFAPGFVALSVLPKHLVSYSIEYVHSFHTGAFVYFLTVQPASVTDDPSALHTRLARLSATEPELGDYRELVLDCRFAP", "sequence (Q04912 310-1400 limits assumed)": "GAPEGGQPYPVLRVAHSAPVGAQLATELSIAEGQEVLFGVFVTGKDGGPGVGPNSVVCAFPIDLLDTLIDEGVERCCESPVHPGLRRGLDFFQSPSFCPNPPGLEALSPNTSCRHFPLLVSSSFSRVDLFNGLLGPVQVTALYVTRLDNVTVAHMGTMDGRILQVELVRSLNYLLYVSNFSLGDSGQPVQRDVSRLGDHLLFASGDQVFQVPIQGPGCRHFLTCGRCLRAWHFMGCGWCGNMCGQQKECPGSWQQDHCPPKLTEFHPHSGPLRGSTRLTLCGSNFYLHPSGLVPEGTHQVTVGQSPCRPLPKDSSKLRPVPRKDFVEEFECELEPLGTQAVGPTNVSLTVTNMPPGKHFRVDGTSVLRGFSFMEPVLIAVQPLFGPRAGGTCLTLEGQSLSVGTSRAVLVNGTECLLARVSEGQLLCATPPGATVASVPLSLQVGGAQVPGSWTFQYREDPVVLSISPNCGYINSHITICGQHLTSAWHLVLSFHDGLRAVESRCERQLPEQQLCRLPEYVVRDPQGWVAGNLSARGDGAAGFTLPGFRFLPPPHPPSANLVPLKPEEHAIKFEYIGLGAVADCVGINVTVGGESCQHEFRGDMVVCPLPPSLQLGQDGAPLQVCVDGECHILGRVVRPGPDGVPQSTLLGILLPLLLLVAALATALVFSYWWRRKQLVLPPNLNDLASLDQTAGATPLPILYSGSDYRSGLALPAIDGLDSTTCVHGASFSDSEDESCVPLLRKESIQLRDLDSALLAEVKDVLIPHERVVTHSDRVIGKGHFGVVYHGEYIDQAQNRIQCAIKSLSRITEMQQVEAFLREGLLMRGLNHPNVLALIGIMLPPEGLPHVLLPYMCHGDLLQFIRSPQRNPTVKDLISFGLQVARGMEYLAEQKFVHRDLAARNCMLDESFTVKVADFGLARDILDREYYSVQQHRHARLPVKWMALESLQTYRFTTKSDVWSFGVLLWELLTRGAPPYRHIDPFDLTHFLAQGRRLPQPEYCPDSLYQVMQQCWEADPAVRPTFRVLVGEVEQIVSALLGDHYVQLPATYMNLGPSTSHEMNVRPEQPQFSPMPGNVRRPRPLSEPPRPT", "assay": "Inhibition of wild-type human partial length MST1R (I1057 to L1363 residues) expressed in bacterial expression system assessed as residual activity at 1 uM by Kinomescan method relative to control"}, "[17]": {"target": "Tyrosine-protein kinase TXK (Homo sapiens) (UniProt P42681)", "assay": "Inhibition of wild-type human partial length TXK (L238 to W527 residues) expressed in bacterial expression system assessed as residual activity at 1 uM by Kinomescan method relative to control"}, "[18]": {"target": "Serine/threonine-protein kinase PAK 3 (Homo sapiens) (UniProt O75914)", "sequence (O75914 whole entry, looked up, the tested form may be a part)": "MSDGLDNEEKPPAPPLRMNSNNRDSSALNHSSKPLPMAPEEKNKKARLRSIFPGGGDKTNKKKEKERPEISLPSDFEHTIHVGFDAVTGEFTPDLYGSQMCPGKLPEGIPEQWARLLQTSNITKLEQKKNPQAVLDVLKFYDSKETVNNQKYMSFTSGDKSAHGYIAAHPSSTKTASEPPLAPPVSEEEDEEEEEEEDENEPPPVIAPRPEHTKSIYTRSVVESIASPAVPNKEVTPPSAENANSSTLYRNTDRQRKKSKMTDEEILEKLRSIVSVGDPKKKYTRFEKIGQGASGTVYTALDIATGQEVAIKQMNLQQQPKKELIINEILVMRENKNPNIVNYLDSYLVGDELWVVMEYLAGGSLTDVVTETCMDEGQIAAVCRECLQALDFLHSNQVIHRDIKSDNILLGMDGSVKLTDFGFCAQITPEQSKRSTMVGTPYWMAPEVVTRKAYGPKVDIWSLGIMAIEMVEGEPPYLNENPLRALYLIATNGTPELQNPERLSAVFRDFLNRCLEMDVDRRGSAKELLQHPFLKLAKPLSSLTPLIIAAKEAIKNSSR", "assay": "Inhibition of wild-type human full length PAK3 (M1 to R544 residues) expressed in bacterial expression system assessed as residual activity at 1 uM by Kinomescan method relative to control"}, "[19]": {"target": "Ribosomal protein S6 kinase alpha-3 (Homo sapiens) (UniProt P51812)", "assay": "Inhibition of wild-type human partial length N-terminal RSK2 kinase domain 1 (M1 to D394 residues) expressed in mammalian expression system assessed as residual activity at 1 uM by Kinomescan method relative to control"}, "[20]": {"target": "Ephrin type-B receptor 6 (Homo sapiens) (UniProt O15197)", "assay": "Inhibition of wild-type human partial length EPHB6 (Q634 to P948 residues) expressed in mammalian expression system assessed as residual activity at 1 uM by Kinomescan method relative to control"}, "[21]": {"system": "Mast/stem cell growth factor receptor Kit (Homo sapiens), P10721 [L576P]", "assay": "Inhibition of human partial length KIT L576P mutant (Y545 to D952 residues) expressed in bacterial expression system assessed as residual activity at 1 uM by Kinomescan method relative to control"}, "[22]": {"target": "Cyclin-G-associated kinase (Homo sapiens) (UniProt O14976)", "assay": "Inhibition of wild-type human partial length GAK (G13 to Y338 residues) expressed in bacterial expression system assessed as residual activity at 1 uM by Kinomescan method relative to control"}, "[23]": {"target": "Wee1-like protein kinase 2 (Homo sapiens) (UniProt P0C1S8)", "assay": "Inhibition of wild-type human partial length WEE2 (M204 to K492 residues) expressed in bacterial expression system assessed as residual activity at 1 uM by Kinomescan method relative to control"}, "[24]": {"target": "Serine/threonine-protein kinase Nek2 (Homo sapiens) (UniProt P51955)", "sequence (P51955 whole entry, the tested form may be a part)": "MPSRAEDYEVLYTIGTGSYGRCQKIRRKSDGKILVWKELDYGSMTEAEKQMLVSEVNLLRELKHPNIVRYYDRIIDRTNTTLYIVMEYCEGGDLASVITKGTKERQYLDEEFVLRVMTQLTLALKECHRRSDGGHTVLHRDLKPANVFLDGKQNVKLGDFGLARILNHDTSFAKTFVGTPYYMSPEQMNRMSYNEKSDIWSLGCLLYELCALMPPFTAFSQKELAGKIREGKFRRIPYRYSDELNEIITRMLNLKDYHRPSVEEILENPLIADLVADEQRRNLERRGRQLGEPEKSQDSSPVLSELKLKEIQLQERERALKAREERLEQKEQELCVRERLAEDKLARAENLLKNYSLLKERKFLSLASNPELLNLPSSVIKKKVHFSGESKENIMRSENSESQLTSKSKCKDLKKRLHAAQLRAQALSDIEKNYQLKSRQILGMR", "assay": "Inhibition of wild-type human partial length NEK2 (M1 to K309 residues) expressed in bacterial expression system assessed as residual activity at 1 uM by Kinomescan method relative to control"}},
  "data": [
    {"molecule": "C=CC(=O)Nc1cc(Nc2cc(-c3cccc(NC(=O)c4ccc(C(C)(C)C)cc4)c3C)cn(C)c2=O)ccc1C(=O)N1CCOCC1", "values": [
      {"measurement": "Activity", "setting": "[1]", "value": 93, "unit": "%"},
      {"measurement": "Activity", "setting": "[2]", "value": 100, "unit": "%"},
      {"measurement": "Activity", "setting": "[3]", "value": 100, "unit": "%"},
      {"measurement": "Activity", "setting": "[4]", "value": 98, "unit": "%"},
      {"measurement": "Activity", "setting": "[5]", "value": 79, "unit": "%"},
      {"measurement": "Activity", "setting": "[6]", "value": 100, "unit": "%"},
      {"measurement": "Activity", "setting": "[7]", "value": 100, "unit": "%"},
      {"measurement": "Activity", "setting": "[8]", "value": 84, "unit": "%"},
      {"measurement": "Activity", "setting": "[9]", "value": 97, "unit": "%"},
      {"measurement": "Activity", "setting": "[10]", "value": 77, "unit": "%"},
      {"measurement": "Activity", "setting": "[11]", "value": 100, "unit": "%"},
      {"measurement": "Activity", "setting": "U2932", "value": "Dose-dependent effect"},
      {"measurement": "Activity", "setting": "[12]", "value": 100, "unit": "%"},
      {"measurement": "Activity", "setting": "[13]", "value": 95, "unit": "%"},
      {"measurement": "Activity", "setting": "[14]", "value": 100, "unit": "%"},
      {"measurement": "Activity", "setting": "[15]", "value": 100, "unit": "%"},
      {"measurement": "Activity", "setting": "[16]", "value": 97, "unit": "%"},
      {"measurement": "Activity", "setting": "[17]", "value": 100, "unit": "%"},
      {"measurement": "Activity", "setting": "[18]", "value": 71, "unit": "%"},
      {"measurement": "Activity", "setting": "[19]", "value": 100, "unit": "%"},
      {"measurement": "Activity", "setting": "[20]", "value": 100, "unit": "%"},
      {"measurement": "Activity", "setting": "[21]", "value": 97, "unit": "%"},
      {"measurement": "Activity", "setting": "[22]", "value": 99, "unit": "%"},
      {"measurement": "Activity", "setting": "[23]", "value": 100, "unit": "%"},
      {"measurement": "Activity", "setting": "[24]", "value": 99, "unit": "%"}
    ]}
  ]
}
